These results are taken from ChEMBL document CHEMBL1155694, “Sesquiterpene alkaloids from Tripterygium hypoglaucum and Tripterygium wilfordii: a new class of potent anti-HIV agents” (J Nat Prod, 2000).

Converted amounts (≈) assume the structure as drawn. The source made the active and inactive calls. No cut-off for these calls is given here. A value given as a limit tells only on which side of the number the result lay.

Series [1] relates to H9. Put plainly: Cytotoxicity against human H9 cells. It counts as cell-based.
Series [2] concerns Human immunodeficiency virus 1. Briefly: Antiviral activity against HIV1 in human H9 cells assessed as inhibition of viral replication. It counts as functional, organism-based. The following applies: for EC50: Human immunodeficiency virus 1, H9.
A short description of series [3]: Therapeutic index, ratio of IC50 for human H9 cells to EC50 for HIV1. It counts as cell-based. The note with it: read-out: Ratio IC50/EC50.

As for `COC(=O)C[C@@H]1C(=O)CC[C@H](C)C(=O)O[C@@H]2[C@@H]3[C@@H](OC(C)=O)[C@@]45O[C@@]3(C)COC(=O)c3cnccc3[C@@H](C)[C@@](C)(O)C(=O)O[C@@H]([C@H](OC(C)=O)[C@H](OC(C)=O)[C@@]4(COC1=O)[C@@H]2OC(C)=O)[C@]5(C)O`, the IC50 in series [1] was above 100 µg/mL. For the same compound, the EC50 in series [2] was below 0.1 µg/mL. Besides, the selectivity ratio in series [3] is above 1000.
On the same counts, the results for `CC(=O)OC[C@]12[C@H](OC(C)=O)[C@H](OC(C)=O)[C@@H]3[C@@H](OC(=O)c4ccccc4)[C@@]14O[C@@]3(C)COC(=O)c1cccnc1C(C)C(C)C(=O)O[C@@H]([C@H](OC(C)=O)[C@@H]2OC(C)=O)[C@]4(C)O` (some centres undefined) are 56.8 µg/mL (≈ 65.4 µM), 0.9 µg/mL (≈ 1.04 µM) and 63.4.
On the same counts, the results for `CC(=O)OC[C@]12[C@H](OC(C)=O)[C@H](OC(C)=O)[C@@H]3[C@@H](OC(C)=O)[C@@]14O[C@@]3(C)COC(=O)c1cccnc1C(C)C(C)C(=O)O[C@@H]([C@H](OC(C)=O)[C@@H]2OC(C)=O)[C@]4(C)O` (some centres undefined) [EUONYMINE] are 22.8 µg/mL (≈ 28.3 µM), 0.203 µg/mL (≈ 0.252 µM) and 113.
On the same counts, the results for `CC(=O)OC[C@]12[C@H](OC(C)=O)C(=O)[C@@H]3[C@@H](OC(C)=O)[C@@]14O[C@@]3(C)COC(=O)c1cccnc1C(C)C(C)C(=O)O[C@@H]([C@H](OC(C)=O)[C@@H]2OC(C)=O)[C@]4(C)O` (some centres undefined) [EVONINE] are 21.2 µg/mL (≈ 27.8 µM), 0.503 µg/mL (≈ 0.66 µM) and 42.1.
With `CC(=O)OC[C@]12[C@H](OC(C)=O)[C@H](OC(C)=O)[C@@H]3[C@@H](OC(C)=O)[C@@]14O[C@@]3(C)COC(=O)c1cccnc1C(C)C(C)C(=O)O[C@@H]([C@H](OC(=O)c1ccccc1)[C@@H]2OC(C)=O)[C@@]4(C)O` (some centres undefined) [FORRESTINE], the IC50 in series [1] is above 100 µg/mL. For the same compound, the EC50 in series [2] is 0.48 µg/mL (≈ 0.553 µM). Besides, the selectivity ratio in series [3] is above 208.
On the same counts, the results for `CC(=O)O[C@@H]1[C@@H]2[C@@H](OC(C)=O)[C@@]34O[C@@]2(C)COC(=O)c2cnccc2C(C)C(C)(O)C(=O)O[C@@H]([C@H](OC(C)=O)[C@H](OC(C)=O)[C@@]3(COC(=O)c2ccco2)[C@@H]1OC(C)=O)[C@]4(C)O` (some centres undefined) [HYPOGLAUNINE A] are above 100 µg/mL, 0.13 µg/mL (≈ 0.149 µM) and above 769.
Regarding `CC(=O)OC[C@]12[C@H](OC(C)=O)[C@H](OC(C)=O)[C@@H]3[C@@H](OC(C)=O)[C@@]14O[C@@]3(C)COC(=O)c1cnccc1C(C)C(C)(O)C(=O)O[C@@H]([C@H](OC(=O)c1ccco1)[C@@H]2OC(C)=O)[C@]4(C)O` (some centres undefined) [HYPOGLAUNINE B], the 50% inhibitory concentration (IC50) in series [1] was above 100 µg/mL. Besides, the EC50 in series [2] worked out at 0.1 µg/mL (≈ 0.114 µM). Also, the selectivity ratio in series [3] was above 1000.
In the case of `CC(=O)O[C@@H]1[C@@H]2[C@@H](OC(C)=O)[C@@]34O[C@@]2(C)COC(=O)c2cnccc2C(C)C(C)C(=O)O[C@@H]([C@H](OC(C)=O)[C@H](OC(C)=O)[C@@]3(COC(=O)c2ccco2)[C@@H]1OC(C)=O)[C@]4(C)O` (some centres undefined) [HYPOGLAUNINE D], half-maximal inhibition in series [1] (IC50) required 22.2 µg/mL (≈ 25.9 µM). Further, the outcome in series [2] was inactive.
Take `CC(=O)OC[C@]12[C@H](OC(C)=O)[C@H](OC(C)=O)[C@@H]3[C@@H](OC(=O)c4ccco4)[C@@]14O[C@@]3(C)COC(=O)c1cccnc1C(C)C(C)C(=O)O[C@@H]([C@H](OC(C)=O)[C@@H]2OC(C)=O)[C@]4(C)O` (some centres undefined) [HYPONINE A]: the half-inhibitory concentration (IC50) in series [1] is 27.7 µg/mL (≈ 32.3 µM). For the same compound, in series [2], the EC50 turned out to be 1 µg/mL (≈ 1.17 µM). Also, the selectivity ratio in series [3] turned out to be 27.7.
As for `CC(=O)O[C@@H]1[C@H](OC(C)=O)[C@@]2(COC(=O)c3ccco3)[C@H](OC(C)=O)C(=O)[C@@H]3[C@@H](OC(C)=O)[C@@]24O[C@@]3(C)COC(=O)c2cccnc2C(C)C(C)C(=O)O[C@@H]1[C@]4(C)O` (some centres undefined) [HYPONINE B], the IC50 in series [1] is above 100 µg/mL. For the same compound, in series [2], the EC50 was 0.1 µg/mL (≈ 0.123 µM). Besides, in series [3], the selectivity ratio is above 1000.
In series [1], `CC(=O)OC[C@]12[C@H](OC(C)=O)[C@H](OC(C)=O)[C@@H]3[C@@H](OC(=O)c4ccccc4)[C@@]14O[C@@]3(C)COC(=O)c1cccnc1C(C)C(C)C(=O)O[C@@H]([C@H](OC(=O)c1cccnc1)[C@@H]2OC(C)=O)[C@]4(C)O` (some centres undefined) [HYPONINE D] showed an IC50 of 20.2 µg/mL (≈ 21.7 µM). Besides, the outcome in series [2] was inactive.
`CC(=O)OC[C@]12[C@H](OC(C)=O)[C@H](OC(=O)c3cccnc3)[C@@H]3[C@@H](OC(=O)c4ccco4)[C@@]14O[C@@]3(C)COC(=O)c1cccnc1C(C)C(C)C(=O)O[C@@H]([C@H](OC(C)=O)[C@@H]2OC(C)=O)[C@]4(C)O` (some centres undefined) [HYPONINE E]: the half-maximal inhibitory concentration (IC50) in series [1] was found to be 1.95 µg/mL (≈ 2.12 µM). In series [2], the EC50 was 0.17 µg/mL (≈ 0.185 µM). Also, the selectivity ratio in series [3] amounted to 11.3.
Taken in the same sequence, the figures for `CC(=O)OC[C@]12[C@H](OC(C)=O)[C@H](OC(C)=O)[C@@H]3[C@@H](OC(C)=O)[C@@]14O[C@@]3(C)COC(=O)c1cccnc1C(C)C(C)C(=O)O[C@@H]([C@H](OC(=O)c1ccco1)[C@@H]2OC(C)=O)[C@]4(C)O` (some centres undefined) [HYPONINE F] were above 100 µg/mL, 35.2 µg/mL (≈ 41 µM) and above 2.84.
On the same counts, the results for `CC(=O)OC[C@]12[C@H](OC(C)=O)[C@H](OC(C)=O)[C@@H]3[C@@H](O)[C@@]14O[C@@]3(C)COC(=O)c1cccnc1C(C)C(C)C(=O)O[C@@H]([C@H](OC(C)=O)[C@@H]2OC(C)=O)[C@]4(C)O` (some centres undefined) [NEOEUONYMINE] are above 100 µg/mL, 0.884 µg/mL (≈ 1.16 µM) and above 113.
Taken in the same sequence, the figures for `COC(=O)C[C@@H]1C(=O)CCC(C)C(=O)O[C@@H]2[C@@H]3[C@@H](OC(C)=O)[C@@]45O[C@@]3(C)COC(=O)c3cccnc3C(C)C(C)C(=O)O[C@@H]([C@H](OC(C)=O)[C@H](OC(C)=O)[C@@]4(COC1=O)[C@@H]2OC(C)=O)[C@]5(C)O` (some centres undefined) [TRIPTONINE A] were above 100 µg/mL, 2.54 µg/mL (≈ 2.69 µM) and above 39.4.
In series [1], `CC(=O)OC[C@]12[C@H](OC(C)=O)[C@H](OC(C)=O)[C@@H]3[C@@H](OC(C)=O)[C@@]14O[C@@]3(C)COC(=O)c1cccnc1CCC(C)(O)C(=O)O[C@@H]([C@H](OC(=O)c1ccccc1)[C@@H]2OC(C)=O)[C@]4(C)O` (some centres undefined) [WILFORDINE] came in with a 50% inhibitory concentration (IC50) of 20 µg/mL (≈ 22.6 µM). In series [2], the concentration giving a half-maximal response (EC50) was below 0.1 µg/mL. The selectivity ratio in series [3] was above 220.
As for `CC(=O)OC[C@]12[C@H](OC(C)=O)[C@H](OC(C)=O)[C@@H]3[C@@H](OC(C)=O)[C@@]14O[C@@]3(C)COC(=O)c1cccnc1CCC(C)C(=O)O[C@@H]([C@H](OC(=O)c1ccco1)[C@@H]2OC(C)=O)[C@]4(C)O` (some centres undefined) [WILFORGINE], the 50% inhibitory concentration (IC50) in series [1] is above 100 µg/mL. The result in series [2] was inactive.
On the same counts, the results for `CC(=O)OC[C@]12[C@H](OC(C)=O)[C@H](OC(C)=O)[C@@H]3[C@@H](OC(C)=O)[C@@]14O[C@@]3(C)COC(=O)c1cccnc1CCC(C)C(=O)O[C@@H]([C@H](OC(=O)c1ccccc1)[C@@H]2OC(C)=O)[C@]4(C)O` (some centres undefined) [WILFORINE] are above 100 µg/mL and “inactive”.
In turn, `CC(=O)OC[C@]12[C@H](OC(C)=O)[C@H](OC(C)=O)[C@@H]3[C@@H](OC(C)=O)[C@@]14O[C@@]3(C)COC(=O)c1cccnc1CCC(C)(O)C(=O)O[C@@H]([C@H](OC(=O)c1ccco1)[C@@H]2OC(C)=O)[C@]4(C)O` (some centres undefined) [WILFORTRINE] showed an IC50 in series [1] above 100 µg/mL. In addition, the EC50 in series [2] was below 0.1 µg/mL. In series [3], the selectivity ratio is above 1000.
For the compound `Cc1cn([C@H]2C[C@H](N=[N+]=[N-])[C@@H](CO)O2)c(=O)[nH]c1=O` [ZIDOVUDINE], the concentration for a half-maximal effect (EC50) in series [2] came to 0.012 µg/mL (≈ 0.0449 µM).

As usually defined, the IC50 is the concentration at which inhibition is half-maximal. For orientation: EC50 means the concentration that produces a half-maximal response.
